Experimental data reported in paper PMC3638638, “Metabonomics Combined with UPLC-MS Chemical Profile for Discovery of Antidepressant Ingredients of a Traditional Chinese Medicines Formula, Chaihu-Shu-Gan-San” (Evidence-based Complementary and Alternative Medicine : eCAM, 2013).
Structures can show the parent of a compound that is named as a salt. Where two headings read alike, the source gives them in different places.

How the values were obtained:
rat MAO-A = molecular target: T1, rat MAO-A (Rattus norvegicus, UniProt P21396); test: Monoamine oxidase A (MAO-A) activity assay, spectrophotometric enzymatic kit; format: biochemical
T1 sequence (P21396 1-526): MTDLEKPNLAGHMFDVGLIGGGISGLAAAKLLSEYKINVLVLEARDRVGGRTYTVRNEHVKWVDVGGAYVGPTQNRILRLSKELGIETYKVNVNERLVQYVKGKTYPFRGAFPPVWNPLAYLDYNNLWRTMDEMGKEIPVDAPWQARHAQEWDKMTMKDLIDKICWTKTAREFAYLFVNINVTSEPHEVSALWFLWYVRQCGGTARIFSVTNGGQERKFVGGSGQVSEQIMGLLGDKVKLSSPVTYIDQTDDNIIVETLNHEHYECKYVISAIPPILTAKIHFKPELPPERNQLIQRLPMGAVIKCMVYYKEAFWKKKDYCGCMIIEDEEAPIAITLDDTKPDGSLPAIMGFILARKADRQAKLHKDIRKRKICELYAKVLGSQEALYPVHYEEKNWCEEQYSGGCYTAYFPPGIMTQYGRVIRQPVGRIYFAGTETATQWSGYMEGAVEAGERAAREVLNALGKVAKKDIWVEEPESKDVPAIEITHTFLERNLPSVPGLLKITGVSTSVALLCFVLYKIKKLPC
Procedure: MAO was purified from the rat liver according to the Gómez method after minor modification. The liver tissue was rapidly removed into ice cold homogenized (1 : 10, w/v) in 50 mM KH2PO4 buffer, pH 7.2, containing […]. Following centrifugation at 1000 g for 10 min, the supernatant was centrifuged at 10,000 g for 30 min to obtain crude mitochondrial pellet.
The MAO-A activity was measured by spectrophotometrically (Mapada, UV-3100, China) using enzymatic kits according to the instructions (Nanjing Jiancheng Institute of Biotechnology). IC50 values were used to estimate the inhibition calculated in relation to a sample of the enzyme treated under the same conditions without inhibitor, versus inhibitor concentration.

CUMS treated rats = test: Ethological study of antidepressant effect on CUMS rat model (body weight, open-field test, sucrose consumption); format: in vivo; conditions: n=8
Procedure: 40 healthy, adult, male Wistar rats, weighing 200 ± 20 g each, were purchased from the Institute of Laboratory Animal Science, CAMS and PUMC (Beijing, China). The rats were housed individually in cages for one week to adapt to the environment under controlled conditions of 12 h light–12 h dark cycles (lights on from 6:00 a.m. to 6:00 p.m.), […], and temperature (20 ± 3°C) with commercial diet and water available ad libitum. All experimental procedures were approved by the Ethics Committee of the Institute of Medicinal Plant Development, CAMS & PUMC.
All rats except control group were subjected to a series of variable stimuli as previously described after minor modification.
The antidepressant effects of CSGS and QZ extracts were evaluated on a CUMS rat model, a well-validated animal model of depression (see supplementary material Table S1 available online at http://dx.doi.org/10.1155/2013/487158).

[1] = parameters: method as in PMID 3435494, PMID 20515525; conditions: must be hydrolyzed by gut microflora enzymes to aglycone naringenin; cited from earlier work
[2] = rat MAO-A as enzyme source (rat liver mitochondrial pellet)
[3] = rat MAO-A as enzyme source (rat liver mitochondrial pellet), read-out: IC50, inhibition against MAO-A activity

| IC50, inhibition against MAO-A activity (rat MAO-A; [2]) | IC50 (rat MAO-A; [3]) | SMILES | IC50 (rat MAO-A) | other results |
| --- | --- | --- | --- | --- |
| relatively weak | 26.7 µM | COc1ccc([C@@H]2CC(=O)c3c(O)cc(O[C@@H]4O[C@H](CO[C@@H]5O[C@@H](C)[C@H](O)[C@@H](O)[C@H]5O)[C@@H](O)[C@H](O)[C@H]4O)cc3O2)cc1O [Hesperidin] |  |  |
| relatively weak | 93.8 µM | COc1ccc([C@@H]2CC(=O)c3c(O)cc(O[C@@H]4O[C@H](CO)[C@@H](O)[C@H](O)[C@H]4O[C@@H]4O[C@@H](C)[C@H](O)[C@@H](O)[C@H]4O)cc3O2)cc1O [Neohesperidin] |  |  |
|  |  | CNCCC(Oc1ccc(C(F)(F)F)cc1)c1ccccc1 (stereo not drawn) [Positive control, Fluoxetine hydrochloride] |  | Body weight, 0W (CUMS treated rats; 0W (baseline), mean): 191.702 g; Sucrose consumption, 4W (CUMS treated rats; 4W of treatment): 17.5 g; Open-field test (OFT), 0W (CUMS treated rats; horizontal movements, 0W (baseline), mean): 81.7; Open-field test (OFT), 4W (CUMS treated rats; horizontal movements, 4W of treatment, mean): 61.4 |
|  |  | C[C@@H]1O[C@@H](O[C@H]2[C@H](Oc3cc(O)c4c(c3)O[C@H](c3ccc(O)cc3)CC4=O)O[C@H](CO)[C@@H](O)[C@@H]2O)[C@H](O)[C@H](O)[C@H]1O [Naringin] | 5.82 µM | Absorption from the gastrointestinal tract in its original form [1]: poorly absorbed |

| SMILES | IC50, inhibition against MAO-A activity (rat MAO-A; [2]) | IC50 (rat MAO-A; [3]) | IC50 (rat MAO-A) | other results |
| --- | --- | --- | --- | --- |
| CNCC(O)c1ccc(O)cc1 (stereo not drawn) [Synephrine] | relatively weak |  | 15.2 µM |  |
